Experiments:
[1] = biological target: T1, RARγ (Homo sapiens, UniProt P13631); test: RARγ binding assay (SPA, 3H-TTNPB competition); conditions: RARγ/RXRα heterodimer
T1 construct: made in house; host or cells: baculovirus expression system
T1 sequence (P13631 1-454): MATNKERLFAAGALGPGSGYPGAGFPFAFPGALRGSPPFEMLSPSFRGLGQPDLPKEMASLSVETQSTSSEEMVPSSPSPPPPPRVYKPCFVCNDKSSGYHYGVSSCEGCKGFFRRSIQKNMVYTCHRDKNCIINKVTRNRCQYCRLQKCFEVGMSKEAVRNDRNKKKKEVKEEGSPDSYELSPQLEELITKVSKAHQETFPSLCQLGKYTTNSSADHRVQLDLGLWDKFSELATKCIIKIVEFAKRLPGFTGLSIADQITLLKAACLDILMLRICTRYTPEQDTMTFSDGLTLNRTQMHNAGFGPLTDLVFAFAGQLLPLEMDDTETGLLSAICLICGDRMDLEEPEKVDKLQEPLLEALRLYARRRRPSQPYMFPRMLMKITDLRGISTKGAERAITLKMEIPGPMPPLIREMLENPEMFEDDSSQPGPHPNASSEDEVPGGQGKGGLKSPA
T1 sequence (P19793 1-462 partner): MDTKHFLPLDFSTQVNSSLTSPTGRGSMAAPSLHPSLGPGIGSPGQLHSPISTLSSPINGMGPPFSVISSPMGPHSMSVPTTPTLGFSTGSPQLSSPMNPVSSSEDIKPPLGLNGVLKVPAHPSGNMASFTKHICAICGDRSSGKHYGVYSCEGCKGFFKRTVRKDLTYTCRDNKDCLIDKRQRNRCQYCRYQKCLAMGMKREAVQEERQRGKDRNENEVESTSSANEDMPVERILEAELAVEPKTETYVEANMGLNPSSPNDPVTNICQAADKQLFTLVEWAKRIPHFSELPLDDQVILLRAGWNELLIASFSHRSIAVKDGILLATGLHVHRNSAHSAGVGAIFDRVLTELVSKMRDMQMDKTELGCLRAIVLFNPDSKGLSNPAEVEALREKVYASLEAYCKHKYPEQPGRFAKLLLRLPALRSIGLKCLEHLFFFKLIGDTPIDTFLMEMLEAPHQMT
Source text: Compounds can be evaluated for binding to RARα, β and γ by measuring their ability to competitively bind to the RAR receptors when dimerized with the binding partner RXRα. Competitive binding assays may be carried out by Scintillation Proximity Assay (SPA) technology using the RARα, β or γ heterodimer (with RXRα as a partner with all the RARs) receptors prepared in a baculovirus expression system. Use the biotinylated oligonucleotide: 5′-[…]-3′ for binding of receptor to yttrium silicate streptavidin-coated SPA beads. Per well, preincubate […] with 82.7 μg SPA beads in a binding buffer containing 10 mM HEPES pH 7.8, 80 mM KCl, 0.5 mM MgCl2, 1 mM DTT, 0.5% CHAPS and 16.6 μg bovine serum albumin for 30 min at room temperature. Then spin the mixture at 2,000 rpm for 3 min to pelletize the beads-oligo mix. Remove the supernatant and resuspend the beads-oligo pellet in the same binding buffer as above, but which in addition now also contain 14% glycerol, 5 μg of sheared salmon sperm DNA, 0.5 μg of RARα, 1.0 μg of RARβ, or 0.25 μg of RARγ receptor, respectively. Carry out the binding assays in the presence of ˜11.3 μCi of ^3H 4-[(E)-2-(5,6,7,8-tetrahydro-5,5,8,8-tetramethyl-2-naphthalenyl)-1-propenyl]benzoic acid (TTNPB), and multiple concentrations of test compound ranging from (5 nM to 10 μM). Non-specific binding may be determined in the presence of 1 μM unlabeled TTNPB. Use the data to calculate an IC50 for compounds after fitting the dose-response curves to a 4-parameter logistic fit. Use the Cheng-Prusoff equation to convert IC50 (nM) values for compounds to Ki, and the Kd may be determined by saturation binding.

[2] = biological target: T2, Gal4 (DBD) RARγ (LBD) hybrid receptor (Homo sapiens, UniProt P13631); test: Gal4 reporter assay to determine RAR receptor antagonist activity; assay type: cell-based; conditions: HEK 293 cells, antagonist mode against EC80 ATRA, 24 hours, luciferase
T2 construct: Gal4 (DBD) RARγ (LBD), or the Gal4 (DBD) RARβ (LBD) hybrid receptor; expressed in transfected cells; host or cells: HEK 293
T2 sequence (P13631 185-419 limits assumed): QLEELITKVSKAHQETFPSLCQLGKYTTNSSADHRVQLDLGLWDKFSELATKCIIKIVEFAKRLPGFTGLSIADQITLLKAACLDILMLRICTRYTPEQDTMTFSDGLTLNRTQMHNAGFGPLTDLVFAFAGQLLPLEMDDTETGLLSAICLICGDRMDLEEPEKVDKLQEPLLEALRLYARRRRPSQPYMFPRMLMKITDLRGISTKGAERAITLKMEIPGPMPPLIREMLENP
Source text: For cell-based assays, human embryonic kidney HEK 293 cells are transfected with receptor and reporter gene plasmids using Fugene. The reporter plasmid containing five Gal4 binding sites and a major late promoter of adenovirus upstream of the luciferase reporter cDNA is transfected together with a plasmid constitutively expressing the Gal4 DNA binding domain (DBD) and the RARα ligand binding domain (LBD), Gal4 (DBD) RARγ (LBD), or the Gal4 (DBD) RARβ (LBD) hybrid receptor using a SV40 promoter. Cells are transfected in poly-d-lysine coated T175 cm flasks in DMEM media with 5% charcoal-stripped Fetal Bovine Serum (FBS). After an overnight incubation, transfected cells are trypsinized, plated in opaque 96 well dishes in DMEM media containing 5% charcoal-stripped FBS, incubated for 4 h, and then exposed to 0.17 nM to 10 μM of test compound in half log dilutions. To determine the antagonist activity of the test compound, EC80 concentrations of agonist for each receptor is also added to the media (15 nM all-trans retinoic acid, ATRA, for RARα and RARγ, 10 nM of ATRA for RARβ). After 24 hours of incubation with compounds, cells are lysed and luciferase activity is determined. Data are fitted to a four parameter-fit logistics to determine IC50 values. The maximum % inhibition is determined versus the cellular response to 0.25% DMSO in the absence of ATRA.

| Structure (SMILES) | Ki [1] | Kb [2] |
| --- | --- | --- |
| CC(C)(C)c1cc(-c2cc(-c3ccc(C(=O)O)cc3)nn2-c2ccc(S(C)(=O)=O)cc2)cc(C(C)(C)C)c1 [Example 19, 4-[5-(3,5-Di-tert-butylphenyl)-1-(4-methylsulfonylphenyl)pyrazol-3-yl]benzoic Acid] | 0.00276 µM | 0.0346 µM |
| CC(C)Sc1cc(-c2cc(-c3ccc(C(=O)O)cc3)nn2-c2ccc(C(=O)N(C)C)cc2)cc(C(C)(C)C)c1 [Example 12, 4-[5-(3-tert-Butyl-5-isopropylsulfanyl-phenyl)-1-[4-(dimethylcarbamoyl)phenyl]pyrazol-3-yl]benzoic Acid] | 0.00306 µM | 0.0302 µM |
| CC(C)(C)c1cc(-c2cc(-c3ccc(C(=O)O)cc3)nn2-c2ccc(C(=O)N3CCOCC3)cc2)cc(C(C)(C)C)n1 [Example 8, 4-[5-(2,6-Di-tert-butyl-4-pyridyl)-1-[4-(morpholine-4-carbonyl)phenyl]pyrazol-3-yl]benzoic acid] | 0.00158 µM | 0.0287 µM |
| CN1CCN(C(=O)c2ccc(-n3nc(-c4ccc(C(=O)O)cc4)cc3-c3cc(C(C)(C)C)cc(C(C)(C)C)c3)cc2)CC1 [Example 1, 4-[5-(3,5-Di-tert-butylphenyl)-1-[4-(4-methylpiperazine-1-carbonyl)phenyl]pyrazol-3-yl]benzoic Acid] | 0.00169 µM | 0.023 ± 0.00536 µM |

— patent US20140275049A1, “SUBSTITUTED PYRAZOLE ANALOGS As RAR ANTAGONISTS” (Eli Lilly and Company, priority 2011, published 2014)
